Laboratory results: patent US5621133A (priority 1995, dated 1997)
Structures can show the parent of a compound that is named as a salt.

Key:
[1] = target: dopamine D-2 receptor (Rattus norvegicus, UniProt P61169); assay: biochemical; format: binding; conditions: rat caudate, [125I]-p-aminophenylethyl spiroperidol; read-out: D-2 Ki
Protocol: Homogenized rat caudate was the source of the D-2 receptors. […] The molar affinity of the compound for the receptor binding site was calculated by the same method used for the D-1 receptor assay, assuming a competitive interaction between the compound and the radiolabeled ligand.

[2] = tested on: dopamine D-1 receptor; conditions: for Intrinsic Activity (adenylate cyclase assay): dopamine = 100, goldfish retina or rat striatum; for EC50: read-out: EC50 (agonist activity in adenylate cyclase assay), tissue from goldfish retina or rat striatum
Protocol: In order to determine agonist activity, cell-free tissue homogenates are incubated in an ionic buffer solution containing ATP and the compound being evaluated. The tissue was obtained from either goldfish retina or rat striatum.

[3] = target: dopamine D-1 receptor (Rattus norvegicus, UniProt P18901); assay: biochemical; conditions: D-1 Ki, rat caudate, [125I]SCH-23982
Sequence of dopamine D-1 receptor (Rattus norvegicus, UniProt P18901) (P18901 whole entry): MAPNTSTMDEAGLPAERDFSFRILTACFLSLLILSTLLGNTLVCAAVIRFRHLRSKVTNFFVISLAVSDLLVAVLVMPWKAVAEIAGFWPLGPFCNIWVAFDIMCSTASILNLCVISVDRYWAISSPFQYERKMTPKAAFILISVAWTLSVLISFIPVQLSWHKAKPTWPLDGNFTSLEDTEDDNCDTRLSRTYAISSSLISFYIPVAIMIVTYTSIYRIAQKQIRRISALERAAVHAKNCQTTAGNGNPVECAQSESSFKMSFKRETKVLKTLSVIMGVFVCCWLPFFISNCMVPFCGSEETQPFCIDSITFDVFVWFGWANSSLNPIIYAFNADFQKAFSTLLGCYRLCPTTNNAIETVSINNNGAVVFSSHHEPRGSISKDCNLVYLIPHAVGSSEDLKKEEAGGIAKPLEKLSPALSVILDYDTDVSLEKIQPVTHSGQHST
From the text: The compounds compete with the radiolabeled ligand for occupancy of the receptors and the molar potency of each compound was quantified.
The Ki values are inversely proportional to the affinity of the compound for the receptor.

Sequence of dopamine D-2 receptor (P61169 whole entry): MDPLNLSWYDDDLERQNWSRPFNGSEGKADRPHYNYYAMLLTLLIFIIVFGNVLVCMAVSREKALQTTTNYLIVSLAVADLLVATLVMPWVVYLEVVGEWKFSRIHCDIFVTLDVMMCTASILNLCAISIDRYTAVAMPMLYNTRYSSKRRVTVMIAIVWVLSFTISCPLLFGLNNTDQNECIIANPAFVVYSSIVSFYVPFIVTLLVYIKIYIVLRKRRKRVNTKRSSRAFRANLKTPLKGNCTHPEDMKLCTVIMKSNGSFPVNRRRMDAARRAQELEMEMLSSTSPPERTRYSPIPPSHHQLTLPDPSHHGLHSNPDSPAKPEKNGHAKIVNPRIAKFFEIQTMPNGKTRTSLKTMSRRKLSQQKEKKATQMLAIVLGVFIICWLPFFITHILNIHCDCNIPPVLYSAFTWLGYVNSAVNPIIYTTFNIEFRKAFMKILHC

Row | Compound | Ki [1] [µM] | Intrinsic Activity (adenylate cyclase assay) [2] | EC50 [2] [nM] | Ki [3] [nM]
1 | NC[C@H]1O[C@@H](CCO)Cc2c1ccc(O)c2O (relative stereo) [Example 160] | 1.7 | 136 | 140 | 1300
2 | NC[C@@H]1O[C@H](CCc2ccccc2)Cc2c1ccc(O)c2O (relative stereo) [Example 61] | 1.3 | 76 | 6 | 290
3 | NCC1=CC(c2ccc(O)cc2)Cc2c1ccc(O)c2O (stereo not shown) [Example 39] | > 10 | 84 | 50 | 1400
4 | NC[C@@H]1O[C@H](C2CCCCC2)CCc2c1ccc(O)c2O (relative stereo) [Example 176, [1,3-cis]1-Aminomethyl-3-cyclohexyl-6,7-dihydroxy-1,3,4,5-tetrahydro-2-benzoxepin Hydrochloride] | 2.6 | 90 | 320 | 650
5 | NCC1OC2(CCCCC2)Cc2c1ccc(O)c2O (stereo not shown) [Example 52] | 6.2 | 65 | 71 | 900
6 | Oc1ccc2c(c1O)C[C@H](C1CCCCC1)O[C@@H]2CN1CCCC1 (relative stereo) [Example 115] | 3 | 68 | 2200 | 12000
7 | NC[C@H]1O[C@@H](COc2ccccc2-c2ccccc2)Cc2c1ccc(O)c2O (relative stereo) [Example 56] | 1.3 | 46 | 430 | 2200
8 | NC[C@@H]1O[C@H](c2ccc(I)cc2)Cc2c1ccc(O)c2O (relative stereo) [Example 80] | 1.1 | 161 | 8 | 14
9 | CNC[C@H]1O[C@@H](CCN)Cc2c1ccc(O)c2O (relative stereo) [Example 173] | 14 | 63 | 390 | 3600
10 | NC[C@H]1C[C@@H](c2ccc3ccccc3c2)Cc2c1ccc(O)c2O (relative stereo) [Example 43] | 12 | 70 | 150 | 2400
11 | CNC[C@H]1O[C@@H](CCO)Cc2c1ccc(O)c2O (relative stereo) [Example 174] | 3.5 | 90 | 65 | 1200
12 | NC[C@@H]1O[C@H](CN2Cc3ccccc3C2=O)Cc2c1ccc(O)c2O (relative stereo) [Example 87] | 0.7 | 54 | 50 | 11000
13 | NC[C@H]1O[C@@H](CNC(=O)c2cccnc2)Cc2c1ccc(O)c2O (relative stereo) [Example 170] | 0.14 | 151 | 130 | 570
14 | NCC1=CC(c2ccc3ccccc3c2)Cc2c1ccc(O)c2O (stereo not shown) [Example 40] | 27 | 86 | 1100 | 5000
15 | CNC[C@H]1C[C@@H](c2ccccc2)Cc2c1ccc(O)c2O (relative stereo) [Example 150, [1,3-cis]5,6,Dihydroxy-1-(N-methyl)aminomethyl-3-phenyl-1,2,3,4-tetrahydro-naphthalene] | 12 | 102 | 6 | 25
16 | CCC(=O)Oc1ccc2c(c1OC(=O)CC)CC(c1ccccc1)C=C2CN (stereo not shown) [Example 20] | > 10 | 80 | 500 | 1900
17 | CNC[C@H]1O[C@@H](Cc2ccc(OC)cc2)Cc2c1ccc(O)c2O (relative stereo) [Example 137] | 0.55 | 93 | 1000 | 2900
18 | NCC[C@H]1Cc2c(ccc(O)c2O)[C@@H](CN)O1 (relative stereo) [Example 159] | 3.7 | 129 | 150 | 3100
19 | NC[C@H]1O[C@@H](c2ccc(C(F)(F)F)cc2)Cc2c1ccc(O)c2O (relative stereo) [Example 98] | 1.9 | 108 | 18 | 220
20 | CNC[C@H]1O[C@@H](CC2CCCCC2)Cc2c1ccc(O)c2O (relative stereo) [Example 140] | 1.5 | 113 | 8.4 | 60
21 | NC[C@@H]1O[C@H](C2CCCCC2)Cc2c1ccc1c2OC2(CCCCC2)O1 (relative stereo) [Example 63] | > 10 | 43 | 710 | 71000
22 | CCOC(=O)CC(=O)NC[C@@H]1Cc2c(ccc(O)c2O)[C@H](CN)O1 (relative stereo) [Example 92] | 5.4 | 69 | 600 | 1500
23 | NC[C@H]1O[C@@H](CN2CCOCC2)Cc2c1ccc(O)c2O (relative stereo) [Example 157] | 16 | 111 | 520 | 1300
24 | NC[C@H]1O[C@@H](CN2CCCCC2)Cc2c1ccc(O)c2O (relative stereo) [Example 158] | 6 | 100 | 330 | 2300
25 | NCCC(=O)Oc1ccc2c(c1OC(=O)CCN)CC(c1ccccc1)C=C2CN (stereo not shown) [Example 27] | 6.6 | – | 200 | > 10000
26 | NC[C@@H]1O[C@H](C2CCCCC2)Cc2c1cc(Br)c(O)c2O (relative stereo) [Example 81] | 4.6 | 61 | 67 | 210
27 | Oc1ccc2c(c1O)C[C@H](c1ccccc1)O[C@@H]2[C@H]1CCCN1 [Example 127] | > 10 | 55 | 520 | 1300
28 | CNCC1OC2(CCCCCCC2)Cc2c1ccc(O)c2O (stereo not shown) [Example 142] | > 10 | 71 | 87 | 190

Other lines, results leading:

Row | Ki [1] [µM] | Intrinsic Activity (adenylate cyclase assay) [2] | EC50 [2] [nM] | Ki [3] [nM] | Compound
29 | 4.7 | 71 | 80 | 1100 | Oc1ccc2c(c1O)C[C@@H](c1ccccc1)C[C@H]2[C@H]1CCCN1 (relative stereo) [Example 180, [1,3-cis]5,6-Dihydroxy-3-phenyl-1-(2'-pyrrolidinyl)-1,2,3,4-tetrahydronaphthalene Hydrobromide]
30 | > 10 | 34 | 1900 | 6500 | NCC1CC2(CCCCCCCCC2)Cc2c1ccc(O)c2O (stereo not shown) [Example 237]
31 | 6.3 | 92 | 110 | 330 | CC(C)(C)C1C=C(CN)c2ccc(O)c(O)c2C1 (stereo not shown) [Example 190]
32 | 6.4 | 70 | 1200 | 2500 | CNC[C@@H]1S[C@H](c2ccccc2)Cc2c1ccc(O)c2O (relative stereo) [Example 187, [1,3-cis]1-(N-Methyl)aminomethyl-3-phenyl-3,4-dihydro-5,6-dihydroxy-1H-2-benzothiopyran Hydrochloride]
33 | 2.8 | 25 | – | 490 | Oc1ccc2c(c1O)CC(CC1CCCC1)C1=C2CNCC1 (stereo not shown) [Example 209]
34 | > 10 | 58 | 1500 | 1100 | NCC1=CC2(CCCCCCC2)Cc2c1ccc(O)c2O [Example 191]
35 | 1.6 | 79 | 68 | 26 | Oc1ccc2c(c1O)CC1(CCCCCC1)C1=C2CNCC1 [Example 206]
36 | 3 | 83 | 950 | 70 | CCCCC1Cc2c(ccc(O)c2O)C2=C1CCNC2 (stereo not shown) [Example 243]
37 | > 10 | 49 | 1700 | 3800 | NCC1=CC2(CCCCCCCC2)Cc2c1ccc(O)c2O [Example 232]
38 | > 10 | 47 | 22 | 70 | O=CO.Oc1ccc2c(c1O)CC(c1ccccc1)C1=C2CNC1 (stereo not shown) [Example 184, 6,7-Dihydroxy-4-phenyl-2,3,4,5-tetrahydro-1H-benz[e]isoindole Formic Acid Salt]
39 | 34 | 95 | 1300 | 1900 | NC[C@@H]1S[C@H](c2ccccc2)Cc2c1ccc(O)c2O (relative stereo) [Example 186, [1,3-cis]1-Aminomethyl-3-phenyl-3,4-dihydro-5,6-dihydroxy-1H-2-benzothiopyran Hydrochloride]
40 | > 10 | 82 | 58 | 4000 | NCC1CC2(CCCCC2)Cc2c1ccc(O)c2O (stereo not shown) [Example 194]
41 | 6.6 | 62 | 170 | 130 | Cc1cc2c(c(O)c1O)C[C@@H](C1CCCCC1)O[C@H]2CN (relative stereo) [Example 177, [1,3-cis]1-Aminomethyl-3-cyclohexyl-3,4-dihydro-5,6-dihydroxy-7-methyl-1H-2-benzopyran Hydrochloride]
42 | 1.2 | 41 | 470 | 530 | CCN1CCC2=C(C1)c1ccc(O)c(O)c1CC21CCCCCC1 [Example 251]
